Test results taken from patent publication US20040028684A1, “Cancer diagnosis and assays for screening anti-cancer agents” (priority 2000, published 2004).

Test system: RMP1
Experiment: Rapamycin sensitive signaling on human RMP1: immunoblot of RMP in insulin-induced HEK293 cells
Assay type: cell-based
Conditions: serum-deprived HEK293 cells, 50 nM insulin, after 1 h induction, maintained throughout 8 h, no rapamycin
Description: Human Embryonic kidney (HEK293) cells are grown in DMEM+10% FCS. Exponentially growing HEK 293 cells are deprived of serum overnight, and then induced with 50 nM insulin in the presence or absence of 20 nM rapamycin. Protein extracts were prepared from cells harvested at 0 h, 1 h, 2 h, 4 h and 8 h after insulin induction. The cell extracts were subjected to SDS-polyacrylamide gel electrophoresis and the resulting gels were analyzed by immuno-blotting using a rabbit polyclonal anti-human RMP antibody. Antibodies specific for RMP are easily prepared using standard laboratory practices. A secondary antibody specific for rabbit antibodies, labelled was used to visualize RMP on the immunoblot using routine procedures.
In the presence of insulin and amino acids (in the culture medium in this example), RMP is present as a slower migrating form, indicating a phosphorylated form. Under these conditions, the cells continue to synthesize […]. With the addition of rapamycin, RMP is present as a fast migrating form and blocks the synthesis of […]

insulin
slower migrating form of RMP: induced
